The text below walks through data of publication PMC9798004 (Frontiers in Psychiatry, 2022).

One test concerns the target T1, GPR109B (Homo sapiens, UniProt P49019).
T1 construct: purchased Eurofins DiscoverX (PathHunter gpcrMAX)
The test can be described thus: PathHunter β-arrestin assay. Type of test: cell-based. The note with it: screen, control agonist; CHO, 37C, 2HR.

A further test addresses T2, EBI2 (Homo sapiens, UniProt P32249).
T2 construct: purchased Eurofins DiscoverX (PathHunter gpcrMAX)
The test can be described thus: PathHunter β-arrestin assay. Conditions: screen, control agonist; CHO, RT, 2HR. Format: cell-based.

In another test the target is DRD2L (Homo sapiens, UniProt P14416). The test can be described thus: PathHunter β-arrestin assay. Format: cell-based. Conditions: control agonist.
The target of the next test is DRD2S (Homo sapiens, UniProt P14416). The note with it: screen, control agonist; CHO, RT, 2HR.
In a further test the target is T3, FFAR1 (Homo sapiens, UniProt O14842).
T3 construct: purchased Eurofins DiscoverX (PathHunter gpcrMAX)
Put plainly: PathHunter β-arrestin assay. Format: cell-based. The note with it: screen, control agonist; DLD1, 37C, 4HR.

The next test has as its target T4, GPR120 (Homo sapiens, UniProt Q5NUL3).
T4 construct: purchased Eurofins DiscoverX (PathHunter gpcrMAX)
Put plainly: PathHunter β-arrestin assay. The note with it: screen, control agonist; CHO, 37C, 2HR. Type of test: cell-based.

The target in a further test is T5, EDG7 (Homo sapiens, UniProt Q9UBY5).
T5 construct: purchased Eurofins DiscoverX (PathHunter gpcrMAX)
The test can be described thus: PathHunter β-arrestin assay. Format: cell-based. Conditions: screen, control agonist; CHO, RT, 3HR.

A further test has as its target T6, GPR92 (Homo sapiens, UniProt Q9H1C0).
T6 construct: purchased Eurofins DiscoverX (PathHunter gpcrMAX)
Put plainly: PathHunter β-arrestin assay. The note with it: screen, control agonist; CHO, RT, 3HR. Type of test: cell-based.

The target in a further test is T7, EDG4 (Homo sapiens, UniProt Q9HBW0).
T7 construct: purchased Eurofins DiscoverX (PathHunter gpcrMAX)
Put plainly: PathHunter β-arrestin assay. The note with it: screen, control agonist; CHO, RT, 3HR. Type of test: cell-based.

The next test deals with T8, ADRA1B (Homo sapiens, UniProt P35368).
T8 construct: purchased Eurofins DiscoverX (PathHunter gpcrMAX)
The test can be described thus: PathHunter β-arrestin assay. Format: cell-based. Conditions: screen, control agonist; CHO, 37C, 2HR.

Another test deals with T9, EDG1 (Homo sapiens, UniProt P21453).
T9 construct: purchased Eurofins DiscoverX (PathHunter gpcrMAX)
The test can be described thus: PathHunter β-arrestin assay. Type of test: cell-based. Conditions: screen, control agonist; CHO, 37C, 2HR.

Another test deals with T10, EDG6 (Homo sapiens, UniProt O95977).
T10 construct: purchased Eurofins DiscoverX (PathHunter gpcrMAX)
The test can be described thus: PathHunter β-arrestin assay. Format: cell-based. Conditions: screen, control agonist; CHO, 37C, 4HR.

In a further test the target is T11, EDG3 (Homo sapiens, UniProt Q99500).
T11 construct: purchased Eurofins DiscoverX (PathHunter gpcrMAX)
The test can be described thus: PathHunter β-arrestin assay. Conditions: screen, control agonist; CHO, 37C, 2HR. Format: cell-based.

The next test deals with T12, EDG5 (Homo sapiens, UniProt O95136).
T12 construct: purchased Eurofins DiscoverX (PathHunter gpcrMAX)
Put plainly: PathHunter β-arrestin assay. Type of test: cell-based. The note with it: screen, control agonist; CHO, 37C, 2HR.

The next test addresses T13, CXCR3 (Homo sapiens, UniProt P49682).
T13 construct: purchased Eurofins DiscoverX (PathHunter gpcrMAX)
T13 sequence (P49682 1-368): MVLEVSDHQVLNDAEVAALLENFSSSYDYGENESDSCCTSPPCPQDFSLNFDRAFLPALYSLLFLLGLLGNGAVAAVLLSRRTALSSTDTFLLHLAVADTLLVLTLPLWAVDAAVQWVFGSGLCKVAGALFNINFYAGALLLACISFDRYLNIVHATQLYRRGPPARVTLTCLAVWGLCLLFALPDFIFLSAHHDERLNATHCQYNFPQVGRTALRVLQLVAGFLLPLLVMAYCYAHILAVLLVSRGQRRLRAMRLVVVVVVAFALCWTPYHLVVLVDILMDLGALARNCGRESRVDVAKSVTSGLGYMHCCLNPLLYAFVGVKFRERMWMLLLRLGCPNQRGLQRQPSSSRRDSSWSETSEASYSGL
The test can be described thus: PathHunter β-arrestin assay. Conditions: screen, control agonist; CHO, 37C, 2HR. Format: cell-based.

Another test addresses T14, CXCR4 (Homo sapiens, UniProt P61073).
T14 construct: purchased Eurofins DiscoverX (PathHunter gpcrMAX)
The test can be described thus: PathHunter β-arrestin assay. Format: cell-based. Conditions: screen, control agonist; C2C12, 37C, 2HR.

Another test has as its target T15, CXCR5 (Homo sapiens, UniProt P32302).
T15 construct: purchased Eurofins DiscoverX (PathHunter gpcrMAX)
T15 sequence (P32302 1-372): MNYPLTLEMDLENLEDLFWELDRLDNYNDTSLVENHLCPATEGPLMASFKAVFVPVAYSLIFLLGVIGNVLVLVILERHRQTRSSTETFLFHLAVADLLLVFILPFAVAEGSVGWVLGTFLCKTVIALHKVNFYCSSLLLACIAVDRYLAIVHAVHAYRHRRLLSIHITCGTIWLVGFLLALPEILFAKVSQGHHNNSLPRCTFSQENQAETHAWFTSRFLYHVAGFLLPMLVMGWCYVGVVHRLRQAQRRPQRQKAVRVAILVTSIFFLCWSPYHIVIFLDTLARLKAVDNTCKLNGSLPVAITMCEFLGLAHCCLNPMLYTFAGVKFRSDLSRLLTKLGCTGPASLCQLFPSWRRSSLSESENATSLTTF
The test can be described thus: PathHunter β-arrestin assay. Type of test: cell-based. The note with it: screen, control agonist; CHO, 37C, 2HR.

The target in the next test is T16, GPR1 (Homo sapiens, UniProt P46091).
T16 construct: purchased Eurofins DiscoverX (PathHunter gpcrMAX)
T16 sequence (P46091 1-355): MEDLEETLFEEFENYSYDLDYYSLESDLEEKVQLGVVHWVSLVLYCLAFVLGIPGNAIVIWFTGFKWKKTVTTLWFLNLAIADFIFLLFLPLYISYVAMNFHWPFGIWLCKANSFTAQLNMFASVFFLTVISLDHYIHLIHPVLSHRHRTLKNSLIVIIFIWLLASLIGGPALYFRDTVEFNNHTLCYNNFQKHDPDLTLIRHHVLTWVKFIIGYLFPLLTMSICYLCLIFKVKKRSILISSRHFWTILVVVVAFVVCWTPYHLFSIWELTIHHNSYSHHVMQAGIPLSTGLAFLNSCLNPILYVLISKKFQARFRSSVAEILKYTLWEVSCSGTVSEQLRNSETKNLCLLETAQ
Put plainly: PathHunter β-arrestin assay. Format: cell-based. The note with it: screen, control agonist; CHO, 37C, 2HR.

The target in the next test is T17, GPR103 (Homo sapiens, UniProt Q96P65).
T17 construct: purchased Eurofins DiscoverX (PathHunter gpcrMAX)
T17 sequence (Q96P65 1-431): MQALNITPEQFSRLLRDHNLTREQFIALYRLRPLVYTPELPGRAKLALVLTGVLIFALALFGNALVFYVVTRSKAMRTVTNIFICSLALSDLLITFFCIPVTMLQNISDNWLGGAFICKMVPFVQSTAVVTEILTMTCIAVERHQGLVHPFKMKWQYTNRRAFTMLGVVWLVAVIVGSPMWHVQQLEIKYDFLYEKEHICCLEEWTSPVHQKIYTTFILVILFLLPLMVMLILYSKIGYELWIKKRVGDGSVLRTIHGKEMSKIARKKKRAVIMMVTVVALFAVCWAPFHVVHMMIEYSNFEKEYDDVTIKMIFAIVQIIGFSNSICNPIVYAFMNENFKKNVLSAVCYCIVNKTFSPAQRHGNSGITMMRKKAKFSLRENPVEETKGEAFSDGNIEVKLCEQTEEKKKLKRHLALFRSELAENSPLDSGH
The test can be described thus: PathHunter β-arrestin assay. Type of test: cell-based. Conditions: screen, control agonist; CHO, RT, 2HR.

Another test concerns the target T18, FPRL1 (Homo sapiens, UniProt P25090).
T18 construct: purchased Eurofins DiscoverX (PathHunter gpcrMAX)
The test can be described thus: PathHunter β-arrestin assay. Format: cell-based. Conditions: screen, control agonist; CHO, 37C, 2HR.

The next test addresses T19, FPR1 (Homo sapiens, UniProt P21462).
T19 sequence (P21462 1-350): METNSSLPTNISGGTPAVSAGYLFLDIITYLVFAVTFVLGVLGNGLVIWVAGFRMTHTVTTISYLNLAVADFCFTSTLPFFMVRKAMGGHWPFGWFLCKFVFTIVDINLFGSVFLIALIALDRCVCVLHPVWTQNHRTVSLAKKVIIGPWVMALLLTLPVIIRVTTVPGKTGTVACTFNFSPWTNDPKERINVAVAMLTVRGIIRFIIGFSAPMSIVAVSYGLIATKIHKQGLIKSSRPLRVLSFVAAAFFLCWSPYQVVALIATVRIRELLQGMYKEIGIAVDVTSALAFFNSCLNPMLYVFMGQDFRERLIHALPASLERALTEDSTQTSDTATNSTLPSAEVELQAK
The test can be described thus: PathHunter β-arrestin assay. The note with it: control agonist. Type of test: cell-based.

Another test addresses T20, CXCR6 (Homo sapiens, UniProt O00574).
T20 construct: purchased Eurofins DiscoverX (PathHunter gpcrMAX)
The test can be described thus: PathHunter β-arrestin assay. Format: cell-based. The note with it: screen, control agonist; HEK, 37C, 2HR.

Setting [1] is: follow-up concentration-response assays.

Sequence of DRD2L (P14416 whole entry): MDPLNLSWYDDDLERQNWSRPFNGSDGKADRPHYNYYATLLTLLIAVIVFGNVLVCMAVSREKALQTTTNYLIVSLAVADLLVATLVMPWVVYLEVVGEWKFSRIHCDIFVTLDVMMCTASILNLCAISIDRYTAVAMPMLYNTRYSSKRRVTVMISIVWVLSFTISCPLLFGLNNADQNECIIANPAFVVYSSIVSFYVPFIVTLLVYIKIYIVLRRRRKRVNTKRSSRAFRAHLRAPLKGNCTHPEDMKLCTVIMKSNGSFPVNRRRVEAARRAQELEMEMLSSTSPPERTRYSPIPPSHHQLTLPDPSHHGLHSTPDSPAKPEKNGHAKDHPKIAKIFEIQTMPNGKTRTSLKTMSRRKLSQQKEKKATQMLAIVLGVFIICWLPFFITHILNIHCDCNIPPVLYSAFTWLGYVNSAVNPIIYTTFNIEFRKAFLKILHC
T4 sequence (Q5NUL3 whole entry): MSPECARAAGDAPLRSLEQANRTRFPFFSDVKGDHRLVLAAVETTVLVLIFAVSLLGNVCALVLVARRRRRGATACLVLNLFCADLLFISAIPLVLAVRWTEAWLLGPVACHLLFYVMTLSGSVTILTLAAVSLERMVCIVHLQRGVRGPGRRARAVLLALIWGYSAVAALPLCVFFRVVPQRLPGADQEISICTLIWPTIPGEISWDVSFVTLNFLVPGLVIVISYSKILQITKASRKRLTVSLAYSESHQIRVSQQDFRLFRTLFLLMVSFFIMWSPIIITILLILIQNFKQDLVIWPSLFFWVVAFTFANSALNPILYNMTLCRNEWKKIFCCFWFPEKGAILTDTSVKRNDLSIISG
T2 sequence (P32249 whole entry): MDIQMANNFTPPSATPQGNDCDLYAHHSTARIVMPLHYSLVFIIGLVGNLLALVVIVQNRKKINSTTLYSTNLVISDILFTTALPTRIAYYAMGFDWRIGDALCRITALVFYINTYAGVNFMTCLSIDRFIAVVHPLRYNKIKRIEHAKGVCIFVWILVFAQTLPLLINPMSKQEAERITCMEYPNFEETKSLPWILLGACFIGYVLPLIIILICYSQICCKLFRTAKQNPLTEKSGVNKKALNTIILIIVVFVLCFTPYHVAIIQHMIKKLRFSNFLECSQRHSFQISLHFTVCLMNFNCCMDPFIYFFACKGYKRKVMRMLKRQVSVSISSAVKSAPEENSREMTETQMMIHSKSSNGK
T12 sequence (O95136 whole entry): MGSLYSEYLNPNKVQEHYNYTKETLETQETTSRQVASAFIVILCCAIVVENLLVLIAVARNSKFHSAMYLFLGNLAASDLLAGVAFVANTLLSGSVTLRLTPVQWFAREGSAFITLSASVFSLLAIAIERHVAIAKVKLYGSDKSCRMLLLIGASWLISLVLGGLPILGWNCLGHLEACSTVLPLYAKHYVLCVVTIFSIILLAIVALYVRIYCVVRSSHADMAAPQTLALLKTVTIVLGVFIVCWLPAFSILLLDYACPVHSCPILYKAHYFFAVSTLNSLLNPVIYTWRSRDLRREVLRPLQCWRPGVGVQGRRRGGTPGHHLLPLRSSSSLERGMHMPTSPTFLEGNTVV
T6 sequence (Q9H1C0 whole entry): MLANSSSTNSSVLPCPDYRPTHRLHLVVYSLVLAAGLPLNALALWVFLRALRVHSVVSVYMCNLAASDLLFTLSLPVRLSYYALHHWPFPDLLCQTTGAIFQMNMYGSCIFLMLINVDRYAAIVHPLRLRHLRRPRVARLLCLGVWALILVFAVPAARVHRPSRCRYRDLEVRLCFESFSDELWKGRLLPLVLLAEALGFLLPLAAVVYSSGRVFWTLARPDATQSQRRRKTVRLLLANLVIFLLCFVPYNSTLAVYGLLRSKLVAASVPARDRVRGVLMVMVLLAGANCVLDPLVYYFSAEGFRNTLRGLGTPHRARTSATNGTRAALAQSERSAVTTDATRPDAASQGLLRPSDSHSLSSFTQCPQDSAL
T7 sequence (Q9HBW0 whole entry): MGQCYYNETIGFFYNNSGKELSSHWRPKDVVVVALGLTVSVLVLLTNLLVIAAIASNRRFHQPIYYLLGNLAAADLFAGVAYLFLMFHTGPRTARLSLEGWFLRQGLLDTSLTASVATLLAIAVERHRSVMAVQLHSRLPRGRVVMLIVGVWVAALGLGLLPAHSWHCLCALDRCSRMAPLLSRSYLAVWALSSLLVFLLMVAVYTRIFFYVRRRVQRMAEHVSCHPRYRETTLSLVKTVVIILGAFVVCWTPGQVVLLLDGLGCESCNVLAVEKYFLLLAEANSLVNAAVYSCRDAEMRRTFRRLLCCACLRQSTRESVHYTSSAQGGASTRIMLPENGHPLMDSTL
T8 sequence (P35368 whole entry): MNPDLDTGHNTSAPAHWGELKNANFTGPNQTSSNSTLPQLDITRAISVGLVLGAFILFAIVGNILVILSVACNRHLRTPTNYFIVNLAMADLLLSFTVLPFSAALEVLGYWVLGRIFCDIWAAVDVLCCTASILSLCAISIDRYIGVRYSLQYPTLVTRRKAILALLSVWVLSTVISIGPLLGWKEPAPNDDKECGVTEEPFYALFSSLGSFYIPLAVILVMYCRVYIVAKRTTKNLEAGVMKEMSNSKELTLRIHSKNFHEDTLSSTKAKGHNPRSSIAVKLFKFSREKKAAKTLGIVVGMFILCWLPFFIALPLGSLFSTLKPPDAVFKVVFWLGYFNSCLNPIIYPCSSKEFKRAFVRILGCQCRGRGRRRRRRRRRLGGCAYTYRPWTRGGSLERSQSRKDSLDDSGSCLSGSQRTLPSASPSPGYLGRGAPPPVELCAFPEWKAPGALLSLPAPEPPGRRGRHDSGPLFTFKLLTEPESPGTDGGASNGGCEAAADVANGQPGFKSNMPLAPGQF
T14 sequence (P61073 whole entry): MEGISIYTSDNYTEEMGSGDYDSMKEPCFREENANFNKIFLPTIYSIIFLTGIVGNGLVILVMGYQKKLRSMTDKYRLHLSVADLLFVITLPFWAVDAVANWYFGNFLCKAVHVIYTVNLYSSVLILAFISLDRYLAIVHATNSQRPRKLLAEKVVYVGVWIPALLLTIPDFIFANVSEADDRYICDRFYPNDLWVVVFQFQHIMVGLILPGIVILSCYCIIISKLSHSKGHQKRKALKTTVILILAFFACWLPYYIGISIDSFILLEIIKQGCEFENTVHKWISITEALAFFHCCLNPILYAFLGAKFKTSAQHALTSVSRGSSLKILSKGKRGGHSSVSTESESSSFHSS
T18 sequence (P25090 whole entry): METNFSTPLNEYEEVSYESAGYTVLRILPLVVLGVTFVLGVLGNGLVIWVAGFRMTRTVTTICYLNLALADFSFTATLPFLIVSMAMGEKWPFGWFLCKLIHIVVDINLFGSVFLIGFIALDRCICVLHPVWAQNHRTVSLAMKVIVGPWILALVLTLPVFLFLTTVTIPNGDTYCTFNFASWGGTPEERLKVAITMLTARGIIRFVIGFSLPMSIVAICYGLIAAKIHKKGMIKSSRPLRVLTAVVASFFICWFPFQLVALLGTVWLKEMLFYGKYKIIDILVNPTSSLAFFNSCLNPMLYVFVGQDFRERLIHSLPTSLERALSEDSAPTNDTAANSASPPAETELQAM
T1 sequence (P49019 whole entry): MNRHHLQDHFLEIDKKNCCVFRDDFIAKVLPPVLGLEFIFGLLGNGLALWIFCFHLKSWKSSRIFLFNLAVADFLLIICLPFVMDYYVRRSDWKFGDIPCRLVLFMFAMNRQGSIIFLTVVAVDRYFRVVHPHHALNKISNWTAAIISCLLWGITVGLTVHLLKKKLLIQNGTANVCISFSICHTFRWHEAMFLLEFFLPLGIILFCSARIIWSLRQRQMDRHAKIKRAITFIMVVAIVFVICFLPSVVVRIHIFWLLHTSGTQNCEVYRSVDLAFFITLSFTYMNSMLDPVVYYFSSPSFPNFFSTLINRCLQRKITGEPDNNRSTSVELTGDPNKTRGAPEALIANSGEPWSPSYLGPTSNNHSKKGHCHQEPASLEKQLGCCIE
T20 sequence (O00574 whole entry): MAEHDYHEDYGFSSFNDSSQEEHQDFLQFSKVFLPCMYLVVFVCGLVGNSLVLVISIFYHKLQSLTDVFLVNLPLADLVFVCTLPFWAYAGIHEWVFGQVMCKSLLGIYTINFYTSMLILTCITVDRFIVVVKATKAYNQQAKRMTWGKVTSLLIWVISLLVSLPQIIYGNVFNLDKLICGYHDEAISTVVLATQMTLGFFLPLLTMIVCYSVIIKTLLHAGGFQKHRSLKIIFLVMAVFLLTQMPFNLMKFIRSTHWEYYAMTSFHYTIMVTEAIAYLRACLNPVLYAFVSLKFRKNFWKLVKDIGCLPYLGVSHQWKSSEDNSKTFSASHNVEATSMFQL
T3 sequence (O14842 whole entry): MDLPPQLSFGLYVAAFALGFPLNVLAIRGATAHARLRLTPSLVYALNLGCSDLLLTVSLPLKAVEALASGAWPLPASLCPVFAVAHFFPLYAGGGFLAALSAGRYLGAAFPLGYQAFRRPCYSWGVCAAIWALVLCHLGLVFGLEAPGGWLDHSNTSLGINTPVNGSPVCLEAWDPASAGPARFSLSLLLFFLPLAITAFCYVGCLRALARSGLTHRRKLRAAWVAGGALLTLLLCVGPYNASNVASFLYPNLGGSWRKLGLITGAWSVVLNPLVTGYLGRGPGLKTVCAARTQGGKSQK
T5 sequence (Q9UBY5 whole entry): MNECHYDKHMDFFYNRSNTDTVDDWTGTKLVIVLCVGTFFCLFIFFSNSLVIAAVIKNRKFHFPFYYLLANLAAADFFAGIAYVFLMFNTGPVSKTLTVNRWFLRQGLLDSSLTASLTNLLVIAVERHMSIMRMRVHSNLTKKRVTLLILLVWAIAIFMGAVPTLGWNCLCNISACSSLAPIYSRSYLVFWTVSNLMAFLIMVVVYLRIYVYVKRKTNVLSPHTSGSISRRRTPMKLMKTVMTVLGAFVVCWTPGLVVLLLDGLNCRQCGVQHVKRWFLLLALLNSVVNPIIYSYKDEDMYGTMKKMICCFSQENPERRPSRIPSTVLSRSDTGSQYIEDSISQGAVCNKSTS

The EC80 is the point of the concentration-response curve where the effect stands at 80%. Higher therefore signals a need for much substance. On GPR109B, `CCCCCC(O)CC(=O)O` (stereo not drawn) [3-Hydroxyoctanoic Acid] had an EC80 of 904000 nM.
`C[C@H](CCCC(C)(C)O)[C@H]1CC[C@H]2[C@@H]3[C@H](O)C=C4C[C@@H](O)CC[C@]4(C)[C@H]3CC[C@]12C` [7a,25-Dihydroxycholesterol] came in with an EC80 at EBI2 of 23.3 nM.
Regarding `NCCc1ccc(O)c(O)c1` [Dopamine], the EC80 at DRD2L (setting [1]) is 200 nM; on DRD2L (screen, CHO, 37C, 2HR) it was 100 nM; at DRD2S, 300 nM.
In the case of `O=C(O)CCc1ccc(NCc2cccc(Oc3ccccc3)c2)cc1` [GW9508], the 80% effect concentration (EC80) turned out to be 402 nM at FFAR1 and 21500 nM on GPR120.
For the molecule `CCCCCCCC/C=C\CCCCCCCC(=O)OC[C@@H](O)COP(=O)(O)O` [Oleoyl LPA], the EC80 was determined as 3480 nM at EDG7, 4280 nM at GPR92 and 1960 nM at EDG4.
As for `CNC[C@H](O)c1cccc(O)c1` [Phenylephrine], on ADRA1B, the EC80 came out at 133 nM.
With `CCCCCCCCCCCCC/C=C/[C@@H](O)[C@@H](N)COP(=O)(O)O` [S-1-P], the EC80 at EDG1 turned out to be 117 nM; at EDG6, 180 nM; at EDG3, 194 nM; at EDG5, 119 nM.
In the test with CXCR3, CXCL11: control agonist yielded an EC80 of 17.9 nM.
In the test with CXCR4, CXCL12: control agonist came in with an EC80 of 5.15 nM.
Turning to CXCL13: control agonist, the 80% effect concentration (EC80) in the test with CXCR5 is 61.3 nM.
Turning to Chemerin: control agonist, the EC80 with GPR1 turned out to be 4.61 nM.
In the test with GPR103, QRFP-26 yielded an EC80 of 14.2 nM.
As for WKYMVm-NH2, the EC80 at FPRL1 turned out to be 3.91 nM; on FPR1 (setting [1]) it was 8.52 nM; on FPR1 (screen, CHO, 37C, 2HR), 8.52 nM.

B1: CXCL16: control agonist (protein, UniProt Q9H2A7 30-254, looked up)
C-X-C motif chemokine 16: NEGSVTGSCYCGKRISSDSPPSVQFMNRLRKHLRAYHRCLYYTRFQLLSWSVCGGNKDPWVQELMSCLDLKECGHAYSGIVAHQKHLLPTSPPISQASEGASSDIHTPAQMLLSTLQSTQRPTLPVGSLSSDKELTRPNETTIHTAGHSLAAGPEAGENQKQPEKNAGPTARTSATVPVLCLLAIIFILTAALSYVLCKRRRGQSPQSSPDLPVHYIPVAPDSNT
In the test with CXCR6, B1 yielded an EC80 of 1.39 nM.
